The record followed here is patent US20130345164A1, “TREATMENTS FOR CELLULAR PROLIFERATIVE DISORDERS AND IDENTIFICATION THEREOF” (UNIVERSITY OF MEDICINE AND DENTISTRY OF NEW JERSEY, priority 2010, published 2013).

pIC50: −log10 of the molar value.

Data set [1] concerns TOV112D (p53^R175H) ovarian carcinoma cell line. The experiment in a line: Sensitivity of human tumor cell line system. In kind it is cell-based. To be noted: 0.1 μM to 10 μM. An excerpt:
Five tumor cell lines with endogenous […] mutations were compared, including two cell lines containing R248W mutations and three cell lines with a R273H mutation.

In the next data set the target is T1, p53^R175H mutant protein (Homo sapiens, UniProt P04637, R175H).
T1 construct: one ovarian carcinoma cell line containing a p53^R175H (TOV112D); endogenous in cells; host or cells: TOV112D human ovarian carcinoma cells
The experiment in a line: Immuno-fluorescent staining with conformation-specific antibodies (PAB1620, PAB240, PAB1801) in TOV112D. The class given is cell-based. The text has this:
Conformational change to wild type in TOV112D (p53R175H) was studied by immuno-fluorescent staining.

Data set [2] deals with p53 response element (p53RE) in the p21 promoter, TOV112D cells. The experiment in a line: Luciferase reporter assay, p53RE of the p21 promoter. In kind it is cell-based, human. As for the experimental part: To that end, luciferase activity assays were performed. Briefly, a 20-bp p53 response element (p53RE) was subcloned in the pGL3 vector to generate a luciferase reporter plasmid, which contained 20 base pairs of the p53 response element in the p21 promoter. The sequences of the 5′ site and 3′ site at −2.27 kb and −1.38 kb (SEQ ID NOs: 1 and 3) and their reverse complements (SEQ ID NOs: 2 and 4) are listed below:
The reporter plasmid was transfected to the TOV112D cells or MEF cells with exogenous 248 or 273 mutations. Cells thus-transfected were treated with NSC319726 and subjected to luciferase assays. […] This effect was not seen in MEF cell lines expressing the 248 and 273 alleles, FIG. 10b.
Background: Reporter assays use an easily measured gene product as a stand-in for the process of interest.

Data set [3] in a line: Toxicity assays in p53 wild type, p53 null and p53^R172H mice. In kind it is in vivo. The conditions noted are these: for survival by day 4: 10 mg/kg intraperitoneally daily; for survival by day seven: 5 mg/kg. Here is the method:
Toxicity assays were performed in p53 wild type, p53 null, and p53^R172H mice to determine if in vivo p53 mutant synthetic lethality could be detected.
First, three groups of mice: […], p53^+/R172H/R172H mice, were compared.
Next, the dose was lowered to 5 mg/kg and three groups of mice (p53 wild type, p53 null, and p53^R172H/R172H) were compared.

The test system of the next data set is p21 protein. The experiment in a line: Western Blot of p21 protein levels. In kind it is cell-based, human. To be noted: TOV112D (p53R175H). Background: In western blotting, separated proteins are transferred to a membrane and probed.
Data set [4] deals with murine fibroblast cell line (10)3 (p53 null). The experiment in a line: Growth inhibition assay on isogenic murine fibroblast lines (96-well MTS). In kind it is cell-based. To be noted: p53^null cells. Here is the method:
(§1) None of these compounds have been previously reported for their selective activity in cells with a mutant p53. To provide further evidence for their specificity, growth inhibition assays were performed on isogenic cell lines. Previously developed murine fibroblast cell line (10)3 (p53 null) and 10(3) with transfection of cytomegalovirus-human mutant p53 constructs (273, 248 and 175) (Dittmer, D., et al., Nature Genetics, 1993. 4(1): p. 42-6) were used as cases, while the murine fibroblast cell line 3T3 was used as a p53 wild type control.
(§2) The compounds were validated using several different cell line systems. The first system used was a mouse embryonic fibroblast (MEF) system in which a p53 null MEF line, 10(3), was used as a parental line from which several stable CMV-mutant p53 transfectants were derived. The p53 mutations investigated were the “hot spot” mutants 175, 248, and 273. NIH3T3 fibroblasts were used as a p53 wild type control.

In data set [5] the test system is 10(3) cells with human mutant p53 construct 175. The data set is described as above. In kind it is cell-based. Here is the method: as §1, §2
Data set [6] has as its system 10(3) cells with human mutant p53 construct 273. Described as above. The class given is cell-based. To be noted: cells with mutation p53^273. Here is the method: as §1, §2
Data set [7] has as its system 10(3) cells with human mutant p53 construct 248. The description is as above. The class given is cell-based. The conditions noted are these: cells with mutation p53^248. As for the experimental part: as §1, §2
Data set [8] has as its system murine fibroblast cell line 3T3 (p53 wild type control). The description is as above. To be noted: FIG. 5c. The class given is cell-based. As for the experimental part: as §1, §2
The next data set concerns MEF-p53^R172H cells. The experiment in a line: Viability assay in 12-well cultures (Guava PCA) in MEF lines of the same strain. To be noted: MEF-p53^R172H vs MEF-p53 wild type and MEF-p53 null. The class given is cell-based, mouse. As for the experimental part: The sensitivity was measured in 12-well cultures for viability assay using the Guava PCA instrument following the manufacture protocol.

Broadly, the pIC50 is the negative decadic logarithm of the IC50, by convention in mol/L. A high value points to a small IC50. With `C/C(=N\NC(=S)N1CCC1)c1ccccn1` [NSC319726], in [1], the sensitivity result is reported as “marked sensitivity”. Further, on p53^R175H mutant protein, the “conformational change of p53^R175H (recognised by PAB1620, no longer by PAB240)” value is given as “induced a change in conformation”. For the same compound, the “increase in luciferase activity” value in [2] came out at 2.5 fold. Also, in data set [3] (mouse, in vivo, ip, 10 mg/kg), the “mice alive by day seven” value is recorded as “approximately 40%”. In addition, the “survival by day 4” value in data set [3] (p53^+/R172H mice) is reported as 30%; in data set [3] (p53 wild type mice), 70%. For the same compound, the “survival by day seven” value in data set [3] (p53^R172H/R172H mice) came out at 30%; in data set [3] (p53 null mice), 100%; in [3] (p53 wild type mice), 100%. Also, the “p21 induction (Western blot)” value in the data set on p21 protein was “induced p21”. For the same compound, the pIC50 in data set [4] was roughly 7.00; in [5] (175 mutant, FIG. 5c), 8.10; in [5] (cells carrying the p53^173 mutation (so in the source)) it was roughly 8.00; in data set [6] it was roughly 7.00; in [7], roughly 7.00. The IC50 entry in data set [8] is “not even reached”. The “sensitivity compared to p53 wild type and p53 null controls” value in the data set with MEF-p53^R172H cells is recorded as “much higher sensitivity”.
